For 28 molecules, remaining activity results are on record in paper PMC8286840, “Identifying SARS-CoV-2 antiviral compounds by screening for small molecule inhibitors of Nsp3 papain-like protease” (Biochemical Journal, 2021).

The target of assay [1] is T1, SARS-CoV-2 PLpro (nsp3 1564–1878) (Severe acute respiratory syndrome coronavirus 2, UniProt P0DTD1). Put plainly: biochemical. On the set-up: FRET-quenched peptide (Pro3) cleavage by PLpro, 10 min pre-incubation, slope over 20 min, normalised to no-compound control. The settings on record: low concentration screen, read-out: % of control remaining.
Assay [2] deals with T1, SARS-CoV-2 PLpro (nsp3 1564–1878). Put plainly: biochemical. On the set-up: FRET-quenched peptide (Pro3) cleavage by PLpro, 10 min pre-incubation, slope over 20 min, normalised to no-compound control. The settings on record: high concentration screen, read-out: % of control remaining.

Structures can show the parent of a compound that is named as a salt. Where two headings read alike, the source gives them in different places.

For the molecule `CCCCCCCCCCCCCC/C(C(=O)O)=C(\C)C(=O)O` [Chaetomellic acid A], in assay [1] (Well no.=3141), the remaining activity at 1.25 µM amounted to 95.8%. The remaining activity at 3.75 µM in assay [2] (Well no.=3141) worked out at 96%.
`CO[C@H]1[C@@H](O)[C@@H](C)O[C@H](O[C@H]2[C@H](Oc3cccc4c(O)c5c(=O)oc6ccc(C)c7c(=O)oc(c34)c5c67)O[C@H](C)[C@H](O)[C@@H]2O)[C@@H]1O` [Chartreusin]: the remaining activity at 1.25 µM in assay [1] (Well no.=3508) came out at 96.6%. Besides, in assay [2] (Well no.=3508), the remaining activity at 3.75 µM was 98.4%.
As for `COc1ccc2c(c[n+](C)c3c4cc5c(cc4ccc23)OCO5)c1OC` [Chelerythrine chloride], the remaining activity at 1.25 µM worked out at 92.2% in assay [1] (Well no.=28) and 103% in assay [1] (Well no.=2359). Further, the values for the remaining activity at 3.75 µM in assay [2] (Well no.=28) and in assay [2] (Well no.=2359) were 92.4% and 105%, respectively.
In the case of `COc1ccc2c(c[n+](C)c3c4cc5c(cc4ccc23)OCO5)c1OC` [Chelerythrine], the remaining activity at 1.25 µM in assay [1] (Well no.=3533) was 102%. Also, the remaining activity at 3.75 µM in assay [2] (Well no.=3533) came out at 101%.
For `O=C(O)c1cc(=O)cc(C(=O)O)[nH]1` [Chelidamic acid], the remaining activity at 1.25 µM in assay [1] (Well no.=282) turned out to be 86.7%. The remaining activity at 3.75 µM in assay [2] (Well no.=282) came to 90.8%.
On to `O=C(O)c1cc(=O)cc(C(=O)O)o1` [Chelidonic acid], for which the remaining activity at 1.25 µM in assay [1] (Well no.=6682) is 102%. The remaining activity at 3.75 µM in assay [2] (Well no.=6682) was found to be 102%.
Take `C[C@H](CCC(=O)O)[C@H]1CC[C@H]2[C@@H]3[C@H](O)C[C@@H]4C[C@H](O)CC[C@]4(C)[C@H]3CC[C@]12C` [Chenodeoxycholic Acid]: the results for the remaining activity at 1.25 µM in assay [1] (Well no.=6483) and in assay [1] (Well no.=8382) were 99.2% and 96.1%, respectively. Moreover, the remaining activity at 3.75 µM in assay [2] (Well no.=6483) amounted to 101%; in assay [2] (Well no.=8382) it was 88.2%.
With `Nc1nc(O)c(C2=C3C(=Nc4ccccc43)C(=O)NCC2)[nH]1` [Chk2 Inhibitor], the remaining activity at 1.25 µM in assay [1] (Well no.=2389) was determined as 103%. Further, the remaining activity at 3.75 µM in assay [2] (Well no.=2389) amounted to 103%.
As to `O=C(O)CCCc1ccc(N(CCCl)CCCl)cc1` [Chlorambucil], the remaining activity at 1.25 µM came out at 96.4% in assay [1] (Well no.=327) and 99.2% in assay [1] (Well no.=2227). Further, the remaining activity at 3.75 µM in assay [2] (Well no.=327) amounted to 98.4%; in assay [2] (Well no.=2227) it was 98.3%.
With `O=C(N[C@H](CO)[C@H](O)c1ccc([N+](=O)[O-])cc1)C(Cl)Cl` [Chloramphenicol], in assay [1] (Well no.=2223), the remaining activity at 1.25 µM turned out to be 96.9%. For the same molecule, in assay [2] (Well no.=2223), the remaining activity at 3.75 µM was 96.6%.
As for `CC(=O)O[C@]1(C(C)=O)CC[C@H]2[C@@H]3C=C(Cl)C4=CC(=O)CC[C@]4(C)[C@H]3CC[C@@]21C` [Chlormadinone Acetate], the remaining activity at 1.25 µM in assay [1] (Well no.=2225) is 97.4%. Besides, the remaining activity at 3.75 µM in assay [2] (Well no.=2225) worked out at 96.7%.
As to `CN1C(=O)CCS(=O)(=O)C1c1ccc(Cl)cc1` (centres unmarked) [Chlormezanone], the remaining activity at 1.25 µM in assay [1] (Well no.=679) was found to be 99%. The remaining activity at 3.75 µM in assay [2] (Well no.=679) was 96.9%.
As to `CNC(=O)[C@H]1O[C@@H](n2cnc3c(NCc4cccc(I)c4)nc(Cl)nc32)[C@H](O)[C@@H]1O` [Chloro-IB-MECA], the remaining activity at 1.25 µM in assay [1] (Well no.=395) worked out at 95.2%. In addition, in assay [2] (Well no.=395), the remaining activity at 3.75 µM is 95.2%.
Turning to `O=C(/C=C/c1ccc(O)c(O)c1)O[C@@H]1C[C@](O)(C(=O)O)C[C@@H](O)[C@H]1O` [Chlorogenic acid], the remaining activity at 1.25 µM in assay [1] (Well no.=3510) was 103%. In assay [2] (Well no.=3510), the remaining activity at 3.75 µM came to 103%.
Take `NS(=O)(=O)c1cc2c(cc1Cl)N=CNS2(=O)=O` [Chlorothiazide]: the remaining activity at 1.25 µM in assay [1] (Well no.=82) worked out at 99.4%; in assay [1] (Well no.=7460), 96%. Also, the remaining activity at 3.75 µM in assay [2] (Well no.=82) worked out at 100%; in assay [2] (Well no.=7460), 102%.
As for `Oc1c(Cl)cc(Cl)c2cccnc12` [Chloroxine], the remaining activity at 1.25 µM in assay [1] (Well no.=5266) amounted to 91.9%. For the same molecule, the remaining activity at 3.75 µM in assay [2] (Well no.=5266) amounted to 97.2%.
With `CN(C)CCC(c1ccc(Cl)cc1)c1ccccn1` (centres unmarked) [Chlorpheniramine (maleate)], the remaining activity at 1.25 µM in assay [1] (Well no.=7525) was determined as 103%. Also, the remaining activity at 3.75 µM in assay [2] (Well no.=7525) was 101%.
On to `CN(C)CCC(c1ccc(Cl)cc1)c1ccccn1` (centres unmarked) [Chlorpheniramine], for which the remaining activity at 1.25 µM in assay [1] (Well no.=2229) worked out at 93.7%. Moreover, the remaining activity at 3.75 µM in assay [2] (Well no.=2229) is 95.1%.
For `CN(C)CCOC(C)(c1ccccc1)c1ccc(Cl)cc1` (centres unmarked) [Chlorphenoxamine], the remaining activity at 1.25 µM in assay [1] (Well no.=6219) was 102%. Also, the remaining activity at 3.75 µM in assay [2] (Well no.=6219) worked out at 100%.
As for `CN(C)CCCN1c2ccccc2Sc2ccc(Cl)cc21` [Chlorpromazine (hydrochloride)], the remaining activity at 1.25 µM in assay [1] (Well no.=6227) stood at 95.8%. Further, in assay [2] (Well no.=6227), the remaining activity at 3.75 µM was 96.3%.
Consider `CN(C)CCCN1c2ccccc2Sc2ccc(Cl)cc21` [Chlorpromazine hydrochloride], for which the remaining activity at 1.25 µM in assay [1] (Well no.=44) was determined as 98.8%. Moreover, the remaining activity at 3.75 µM in assay [2] (Well no.=44) turned out to be 96.9%.
As for `CN(C)CCCN1c2ccccc2Sc2ccc(Cl)cc21` [Chlorpromazine.HCl], in assay [1] (Well no.=1596), the remaining activity at 1.25 µM came out at 104%. In addition, in assay [2] (Well no.=1596), the remaining activity at 3.75 µM is 103%.
`CCCNC(=O)NS(=O)(=O)c1ccc(Cl)cc1` [Chlorpropamide]: the remaining activity at 1.25 µM in assay [1] (Well no.=331) stood at 96.9%. In assay [2] (Well no.=331), the remaining activity at 3.75 µM stood at 97.8%.
For the molecule `CN(C)CC/C=C1/c2ccccc2Sc2ccc(Cl)cc21` [Chlorprothixene hydrochloride], the remaining activity at 1.25 µM in assay [1] (Well no.=45) was 89.3%. In assay [2] (Well no.=45), the remaining activity at 3.75 µM turned out to be 90.5%.
For `CN(C)CC/C=C1/c2ccccc2Sc2ccc(Cl)cc21` [Chlorprothixene], the remaining activity at 1.25 µM in assay [1] (Well no.=5345) was determined as 97.4%; in assay [1] (Well no.=6221) it was 104%. For the same molecule, the results for the remaining activity at 3.75 µM in assay [2] (Well no.=5345) and in assay [2] (Well no.=6221) were 93.5% and 99.3%, respectively.
`C[C@H](CCC(=O)O)[C@H]1CC[C@H]2[C@@H]3[C@H](O)C[C@@H]4C[C@H](O)CC[C@]4(C)[C@H]3C[C@H](O)[C@]12C` [Cholic acid]: the remaining activity at 1.25 µM in assay [1] (Well no.=6201) was 105%; in assay [1] (Well no.=8202) it was 96.6%. The remaining activity at 3.75 µM is 105% in assay [2] (Well no.=6201) and 94.8% in assay [2] (Well no.=8202).
As for `C[N+](C)(C)CCO` [Choline bromide], in assay [1] (Well no.=93), the remaining activity at 1.25 µM worked out at 93.4%. Also, in assay [2] (Well no.=93), the remaining activity at 3.75 µM was 97%.
With `CO[C@@H]1[C@H](O)C[C@@H](O[C@@H]2C[C@H](Oc3cc4cc5c(c(O)c4c(O)c3C)C(=O)[C@@H](O[C@H]3C[C@@H](O[C@H]4C[C@@H](O[C@H]6C[C@](C)(O)[C@@H](OC(C)=O)[C@H](C)O6)[C@H](O)[C@@H](C)O4)[C@H](O)[C@@H](C)O3)[C@H]([C@H](OC)C(=O)[C@@H](O)[C@@H](C)O)C5)O[C@H](C)[C@@H]2OC(C)=O)O[C@@H]1C` [Chromomycin A3], the remaining activity at 1.25 µM in assay [1] (Well no.=3579) turned out to be 103%. Moreover, the remaining activity at 3.75 µM in assay [2] (Well no.=3579) turned out to be 107%.
